Experimental data reported in US20250243160A1, “INDOLE DERIVATIVES FOR TARGETING AUTOPHAGY” (Automera PTE. LTD, priority 2024, published 2025).

Tests used:
Recombinant p62 protein = Recombinant p62 protein (Homo sapiens, UniProt Q13501); assay: Surface plasmon resonance (SPR) compound binding to p62; conditions: 15° C
p62 puncta = p62 puncta immunocytochemistry imaging in HeLa cells; format: cell-based; conditions: 24 hours treatment, relative to vehicle control (DMSO)
Procedure, shortened: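 Following 24 h compound or DMSO treatment, HeLa cells were fixed and immunostained for p62 with DAPI counterstain. Puncta counted by imaging on EVOS M7000 (20× objective) or Operetta CLS (63× water objective); reported as fold change versus DMSO.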

Recombinant p62 protein, sequence (Q13501 whole entry, species assumed): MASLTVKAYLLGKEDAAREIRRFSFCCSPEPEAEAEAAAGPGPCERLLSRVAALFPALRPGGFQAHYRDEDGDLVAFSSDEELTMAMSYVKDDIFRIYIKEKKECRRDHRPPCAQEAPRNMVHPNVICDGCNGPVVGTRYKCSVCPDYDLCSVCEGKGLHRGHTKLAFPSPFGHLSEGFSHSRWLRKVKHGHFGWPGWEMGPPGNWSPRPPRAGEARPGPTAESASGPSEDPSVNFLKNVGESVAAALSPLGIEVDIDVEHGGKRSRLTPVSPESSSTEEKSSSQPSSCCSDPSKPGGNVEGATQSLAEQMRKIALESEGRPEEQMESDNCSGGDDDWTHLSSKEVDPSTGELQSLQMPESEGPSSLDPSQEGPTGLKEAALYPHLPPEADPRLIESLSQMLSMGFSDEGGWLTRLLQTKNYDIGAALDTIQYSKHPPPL

receptor occupancy at 100 µM (Recombinant p62 protein) [%] | Structure (SMILES) | p62 puncta (fold change of p62 puncta levels) (p62 puncta)
30 to 70 | OCCNCc1cccc2c1ccn2Cc1ccccc1 [Compound 1, 2-(((1-benzyl-1H-indol-4-yl)methyl)amino)ethan-1-ol] | + (<2-fold change in p62 puncta levels relative to DMSO control)
> 70 | OCCNCc1cc(F)cc2c1ccn2Cc1ccc(F)cc1 [Compound 44] | ++ (>2-fold change in p62 puncta levels relative to DMSO control)
30 to 70 | OCCNCc1cc(F)cc2c1ccn2Cc1ccc(Cl)cc1 [Compound 45, 2-(((1-(4-chlorobenzyl)-6-fluoro-1H-indol-4-yl)methyl)amino)ethan-1-ol] | ++ (>2-fold change in p62 puncta levels relative to DMSO control)
